Patent US7960394B2, “Quinazoline derivative” (Banyu Pharmaceutical Co., Ltd., priority 2004, dated 2011)
Where two headings read alike, the source gives them in different places. One block for each molecule: values may come before it.

Experiments:
[1] = target: T1, human histamine-3 receptor (Homo sapiens, UniProt Q9Y5N1); experiment: Histamine analogue-binding inhibition test ([3H]N-α-methylhistamine, membrane specimen); conditions: result in words
T1 construct: expressed in transfected cells; host or cells: HEK293 and CHO-K1 (American Type Culture Collection)
Procedure: A membrane specimen prepared from the cells having expressed a histamine-3 receptor was incubated in an assay buffer (50 mM Tris buffer, pH 7.4) along with a test compound and 20,000 cpm [^3H]N-α-methylhistamine (by NEN) therein, at 25° C. for 2 hours, and then filtered through a glass filter GF/C. After washed with 50 mM Tris buffer (pH 7.4), the radioactivity on the glass filter was determined. The non-specific binding was determined in the presence of 10 μM thioperamide (by Sigma), and the 50% inhibitory concentration (IC50) of the test compound to the specific N-α-methylhistamine binding was calculated [see Molecular Pharmacology, Vol. 55, p.

[2] = Brain/cerebrospinal fluid migration test; format: in vivo, SD male rats; conditions: rat; for concentration at 30 min / concentration at 2 h: male, SD
Procedure: A test compound was orally or intravenously administered to SD male rats (7 to 10 week-age, 200 to 400 g). While they were anesthetized with ether for a predetermined period of time, the whole blood was collected from them via their abdominal aorta, using a heparin-processed syringe. Then, their occipital skin was cut open, and a dental 30 G needle was stuck into the cervical vertebrae and further into the subarachnoid cavity. Via the tube connected to the dental 30 G needle, from 50 to 100 μL of the cerebrospinal fluid was collected in a 1 mL-syringe, and then the brain was taken out. The blood sample was centrifuged (4° C., 6000 rpm, 10 min), and the resulting plasma was stirred with ethanol of three times (including an internal standard substance) added thereto. The brain sample was homogenized with 2 mL of water added thereto, and a part of it was taken out and stirred with ethanol of three times (including an internal standard substance) added thereto. The cerebrospinal fluid was homogenized with 3 times its volume of ethanol (including an internal standard substance) added thereto. The above samples were left at −20° C. for 20 minutes, then centrifuged (4° C., 12,000 g, 10 min), and the supernatant was analyzed through LC/MS/MS. According to a relative calibration curve method, the concentration of the test compound in the plasma, in the brain and in the cerebrospinal fluid was determined.

T1 sequence (Q9Y5N1 whole entry): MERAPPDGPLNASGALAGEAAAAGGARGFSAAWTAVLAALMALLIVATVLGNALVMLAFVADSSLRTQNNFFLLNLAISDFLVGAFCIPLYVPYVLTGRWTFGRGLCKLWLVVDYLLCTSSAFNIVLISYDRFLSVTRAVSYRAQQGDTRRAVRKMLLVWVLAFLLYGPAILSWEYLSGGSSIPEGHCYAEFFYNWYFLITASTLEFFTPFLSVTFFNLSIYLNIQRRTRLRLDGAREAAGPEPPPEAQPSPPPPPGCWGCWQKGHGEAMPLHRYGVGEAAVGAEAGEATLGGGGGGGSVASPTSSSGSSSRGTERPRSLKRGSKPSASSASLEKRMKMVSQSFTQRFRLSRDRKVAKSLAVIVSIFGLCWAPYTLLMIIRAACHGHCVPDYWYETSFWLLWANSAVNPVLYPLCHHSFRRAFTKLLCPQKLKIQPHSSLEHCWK

melting point: 182.2 to 205.2 °C
SMILES: COc1ccnc2c(=O)n(C)c(-c3ccc(OC4CCN(C5CCC5)CC4)cc3)nc12 [Example 59, 2-{4-[(1-cyclobutylpiperidin-4-yl)oxy]phenyl}-8-methoxy-3-methylpyrido[3,2-d]pyrimidin-4(3H)-one]

SMILES: Cn1c(-c2ccc(OCCCN3CCCC3)cc2)nc2ccccc2c1=O [Example 16, 3-Methyl-2-[4-(3-pyrrolidin-1-ylpropoxy)phenyl]-4(3H)-quinazoline]
inhibition of the binding of N-alpha-methylhistamine (histamine analogue) to histamine-H3 receptor [1]: strongly inhibited | concentration at 30 min ([2]; cerebrospinal fluid, intravenous administration 3 mg/kg, in 30 minutes, read-out: concentration in the cerebrospinal fluid): 134 nM | concentration at 30 min ([2]; plasma, intravenous administration 3 mg/kg, in 30 minutes, read-out: concentration in the plasma): 1360 nM | concentration in the brain ([2]; intravenous administration 3 mg/kg, in 30 minutes): 2.22 nmol/g

concentration at 2 h ([2]; cerebrospinal fluid, oral administration 10 mg/kg, in 2 hours, read-out: concentration in the cerebrospinal fluid): 27 nM | concentration at 2 h ([2]; plasma, oral administration 10 mg/kg, in 2 hours, read-out: concentration in the plasma): 700 nM | concentration in the brain ([2]; oral administration 10 mg/kg, in 2 hours): 1.45 nmol/g
SMILES: Cn1c(-c2ccc(OC3CCN(C4CC4)CC3)cc2)nc2ccccc2c1=O [Example 89, 3-Methyl-2-[4-(1-cyclopropyl-4-piperidinyloxy)-phenyl]-4(3H)-quinazolinone]
